# Values quoted from earlier work in EP3646858A1, “ENCAPSULATED FORMULATIONS” (Pharmalink, SL, priority 2017, dated 2019).
# Conditions: association with piperine; inhibition of hepatic and intestinal glucuronidation
structure (smiles),measurement,value
COc1cc(/C=C/C(=O)CC(=O)/C=C/c2ccc(O)c(OC)c2)ccc1O [curcumin],increase of the bioavailability of curcumin,20 fold
